From paper PMC5171800, “Genes encoding norcoclaurine synthase occur as tandem fusions in the Papaveraceae” (Scientific Reports, 2016)
Like-named read-outs stand apart in the source and are kept apart here.

Assays:
[1] = test system: T1, CCHNCS2; assay: CD spectroscopy at […] nm, (S)-norcoclaurine formation; format: biochemical, Corydalis cheilanthifolia; details: saturating dopamine; pH 7.3, 37 °C, 50 mM phosphate; 4-HPAA kinetics sigmoidal, table gives Hill coefficient for dopamine
T1 construct: full-length natural tandem fusion of two NCS domains; His-tagged (pET29b), E. coli, TALON purified (purification section prints CCHNCS1)

[2] = test system: T2, NDONCS3; assay: as above; format: biochemical, Nandina domestica; details: pH 7.3, 37 °C, 50 mM phosphate
T2 construct: full-length single-domain polypeptide with signal peptide region retained; His-tagged (pET29b), E. coli, TALON purified

[3] = test system: O=CCc1ccc(O)cc1; assay: purified protein; format: biochemical, Thalictrum flavum; details: saturating dopamine, pH 7.3, 37 °C, 50 mM phosphate, 4-HPAA kinetics sigmoidal, table gives Hill coefficient for dopamine

**Q.** Which Km [1] does the source give for `O=CCc1ccc(O)cc1` [4-hydroxyphenylacetaldehyde] here?
**A.** The Km was 1830 ± 697 µM.

**Q.** What about the Km ([2]; saturating dopamine, 4-HPAA kinetics sigmoidal, table gives Hill coefficient for dopamine, read-out: Km (μM) (4-HPAA)) of the same compound?
**A.** Its Km is 480 ± 120 µM.

**Q.** How did the Km ([2]; saturating 4-HPAA, Hill fit by table (the source assigns sigmoidal kinetics to 4-HPAA), read-out: K’m (μM) (dopamine)) turn out when `NCCc1ccc(O)c(O)c1` [dopamine] was run?
**A.** Its Km is 347 ± 35 µM.

**Q.** For TFLNCS2Δ25 (Thalictrum flavum), which Km [3] is on record?
**A.** Its Km is 494 ± 112 µM.

**Q.** And the kcat [3]?
**A.** Its kcat is 2.4 ± 0.2 s⁻¹.
